From US9132164B2, “Pharmaceutical compositions comprising angiotensin-(1-9), derivatives thereof, or a vector expressing ACE2, useful for treating cardiovascular, pulmonary, cerebral, and/or renal remodeling” (PONTIFICIA UNIVERSIDAD CATOLICA DE CHILE, priority 2008, dated 2015)
Marks after values point to notes of the source that are not given here.

Columns and labels:
Type in all cases: in vivo, Sprague Dawley rats
[1] = Circulating bradykinin levels post coronary artery ligation (HPLC and radioimmunoassay); conditions: for Bk-(1-7) / Bk-(1-7)/Bk-(1-9) / Bk-(1-9): plasma, 10 mg/kg daily, 8 weeks, ± SEM
Protocol: (§1) Male Sprague Dawley rats were kept in cages with access to water and food ad libitum. This procedure was performed in accordance with the Guide for the Care and Use of Laboratory Animals, published by “U.S. National Institutes of Health” (NIH publication No 85-23, revised 1985) and was approved by our Institutional Ethics Committee. For studies with enalapril and candesartan, 71 adult normotensive rats were randomly separated into two groups and underwent a sham surgery (surgery without ligation of the coronary artery, n=34) or myocardial infarction following a surgery with ligation of the left coronary artery (infarction, n=37) as previously described (Ocaranza et al, Hypertension 48:572-8, 2006). Briefly, the left coronary artery was ligated between the pulmonary artery exit and left auricle with a 7-0 silk suture under aseptic conditions in rats anaesthetized with ketamine-HCl/xilazine (35/7 mg/kg intraperitoneal, respectively). Sham rats underwent the same surgical procedure except that the suture was not passed around the left coronary artery. Myocardial infarction was confirmed by electrocardiography 24 h following surgery. Mortality rate from myocardial infarction following ligation of the left coronary artery was 25% within 48 h after occlusion. Infarct size in survivors was determined by planimetry of endocardial circumference of left ventricle on histological sections. Sham and infracted rats were randomized to receive the carrier, candesartan (10 mg/kg of body weight daily) or enalapril (10 mg/kg of body weight daily) by gavage for 8 weeks, beginning 48 h after infarction.
(§2) Plasma angiotensin and bradykinin levels were determined as described by (Ocaranza et al, Hypertension 48:572-8, 2006; Ocaranza et al, Life Sci. 78:1535-42, 2005; Campbell et al, J. Mol. Cell. Cardiol. 27:1545-60, 1995). Briefly, rats were anesthetized with a combination of ketamin (125 mg/kg) and xilazin (12.5 mg/kg) administered via intraperitoneal injection. […] Plasmas were stored at −80° C. until their extraction using C18 Sep-Pak cartridges, and peptides were acetylated. Acetylated angiotensin II, angiotensin I, angiotensin-(1-7), angiotensin-(1-9), bradykinin-(1-7) and bradykinin-(1-9) were separated by high performance liquid chromatography (HPLC) and were detected by radioimmunoassay.
(§3) Plasma angiotensin and bradykinin (BK) levels were determined by high performance liquid chromatography and radioimmunoassay as described in example No 2. Angiotensin-I levels are lower in the infarcted rats group, associated with higher levels of angiotensin-II. However, plasma angiotensin-(1-7) and angiotensin-(1,9) levels were similar in sham rats and infarcted rats. Enalapril and candesartan increase both angiotensin-(1-9) circulating levels, and -(1-7)/angiotensin-II and angiotensin-(1-9)/angiotensin-I ratios in both experimental groups. Plasma angiotensin-(1-7) levels were increased by candesartan, and bradykinin-(1-9) levels were increased by enalapril both in infarcted rats and sham rats (Tables 3 and 4).

[2] = Circulating angiotensin levels post coronary artery ligation (HPLC and radioimmunoassay); conditions: for Ang I / Ang II / Ang II/Ang I / Ang-(1 -7) / Ang-(1-7)/Ang II / Ang-(1 -9) / Ang-(1-9)/Ang I: plasma, 10 mg/kg daily, 8 weeks, average ± SEM
Protocol: as §1, §2, §3

[3] = system: sham and infarcted rats (left coronary artery ligation); assay: Effect of candesartan and enalapril on blood pressure, morphometry and function of the left ventricle after coronary artery ligation; conditions: for Infarct size LV / LLVWT / LVAWT / LVEDD / LVESD / LVFS / SBP / LVP content / LVW/BW / mRNA ANF / β-MHC: 10 mg/kg daily by gavage, 8 weeks, average ± SEM
Protocol: as §1
Systolic blood pressure (SBP) was determined by using the “tail-cuff” method by investigators who were blind to the treatment group. Left ventricle function was determined by transthoracic bidimensional echocardiography using a Sonos 5000 equipped with a 5 to 12 MHz sectorial electronic ultraband S12 Philips transducer. The following echocardiographic parameters were determined: left ventricular end-systolic diameter (LVESD), left ventricular end diastolic diameter (LVEDD), left ventricular fractional shortening (LVFS), left ventricular anterior wall thickness (LVAWT), and left ventricular posterior wall thickness (LLVWT).
The extent of left ventricular hypertrophy was calculated by the relationship among left ventricular weight (LVW), body weight (BW), mRNA relative levels of the auricular natriuretic factor (ANF), left ventricular protein content (LVP), and protein levels of β-myosinheavy chain (β-MHC) as described in (Ocaranza et al, Hypertension 48:572-8, 2006).
Left ventricular hypertrophy (LVH) was assessed by ecocardiography, relative left ventricle weight (RLVW, mg left ventricle weight (LVW)/body weight (BW)), relative levels of auricular natriuretic factor (ANF) mRNA, left ventricle protein (LVP) content, and β-myosin heavy chain (β-MHC) content are described in example 1.

[4] = both experimental groups (sham and infarcted rats)

SMILES: CCOC(=O)[C@H](CCc1ccccc1)N[C@@H](C)C(=O)N1CCC[C@H]1C(=O)O [enalapril]
- bradykinin-(1-9) levels ([1]; both in infarcted rats and sham rats): increased
- Bk-(1-7) ([1]; infarcted rats (MI)): 1.40 ± 0.17 fmol/g
- Bk-(1-7)/Bk-(1-9) ([1]; infarcted rats (MI)): 0.17 ± 0.06
- Bk-(1-9) ([1]; infarcted rats (MI)): 7.89 ± 1.22 fmol/g
- Bk-(1-7) ([1]; sham rats): 1.48 ± 0.46 fmol/g
- Bk-(1-7)/Bk-(1-9) ([1]; sham rats): 0.19 ± 0.04
- Bk-(1-9) ([1]; sham rats): 9.53 ± 2.99 fmol/g
- -(1-7)/angiotensin-II ratio [2, 4]: increase
- angiotensin-(1-9) circulating levels [2, 4]: increase
- angiotensin-(1-9)/angiotensin-I ratio [2, 4]: increase
- Ang I ([2]; infarcted rats (MI)): 32.4 ± 0.8 fmol/g
- Ang II ([2]; infarcted rats (MI)): 23.3 ± 5.4 fmol/g
- Ang II/Ang I ([2]; infarcted rats (MI)): 0.72 ± 0.1
- Ang-(1 -7) ([2]; infarcted rats (MI)): 3.8 ± 0.6 fmol/g
- Ang-(1-7)/Ang II ([2]; infarcted rats (MI)): 0.26 ± 0.02
- Ang-(1 -9) ([2]; infarcted rats (MI)): 29 ± 3 fmol/g
- Ang-(1-9)/Ang I ([2]; infarcted rats (MI)): 0.89 ± 0.02
- Ang I ([2]; sham rats): 30.7 ± 1.0 fmol/g
- Ang II ([2]; sham rats): 15.4 ± 3.8 fmol/g
- Ang II/Ang I ([2]; sham rats): 0.45 ± 0.05
- Ang-(1 -7) ([2]; sham rats): 4.1 ± 0.5 fmol/g
- Ang-(1-7)/Ang II ([2]; sham rats): 0.25 ± 0.07
- Ang-(1 -9) ([2]; sham rats): 25 ± 5 fmol/g
- Ang-(1-9)/Ang I ([2]; sham rats): 0.75 ± 0.03
- Infarct size LV ([3]; infarcted rats (MI)): 31 ± 2%
- LLVWT ([3]; infarcted rats (MI)): 1.5 ± 0.1 mm
- LVAWT ([3]; infarcted rats (MI)): 0.9 ± 0.1 mm
- LVEDD ([3]; infarcted rats (MI)): 7.1 ± 0.2 mm
- LVESD ([3]; infarcted rats (MI)): 5.4 ± 0.3 mm
- LVFS ([3]; infarcted rats (MI)): 21 ± 1 %
- SBP ([3]; infarcted rats (MI)): 110 ± 3 mm Hg
- left ventricle dilatation ([3]; infarcted rats, week 8): significantly prevented
- LLVWT ([3]; sham rats): 1.4 ± 0.0 mm
- LVAWT ([3]; sham rats): 1.3 ± 0.2 mm
- LVEDD ([3]; sham rats): 7.5 ± 0.3 mm
- LVESD ([3]; sham rats): 5.2 ± 0.1 mm
- LVFS ([3]; sham rats): 30 ± 1%
- LVP content ([3]; sham rats): 12.4 ± 0.8 mg
- LVW/BW ([3]; sham rats): 2.7 ± 0.2 mg/g
- SBP ([3]; sham rats): 113 ± 2 mm Hg
- mRNA ANF ([3]; sham rats): 0.9 ± 0.1 times
- β-MHC ([3]; sham rats): 1.3 ± 0.2 times

SMILES: CCOc1nc2cccc(C(=O)O)c2n1Cc1ccc(-c2ccccc2-c2nnn[nH]2)cc1 [candesartan]
- Bk-(1-7) ([1]; infarcted rats (MI)): 5.44 ± 1.60 fmol/g
- Bk-(1-7)/Bk-(1-9) ([1]; infarcted rats (MI)): 1.18 ± 0.21^¶
- Bk-(1-9) ([1]; infarcted rats (MI)): 4.08 ± 1.43^¶ fmol/g
- Bk-(1-7) ([1]; sham rats): 4.41 ± 1.5 fmol/g
- Bk-(1-7)/Bk-(1-9) ([1]; sham rats): 1.69 ± 0.51
- Bk-(1-9) ([1]; sham rats): 4.30 ± 1.36 fmol/g
- Ang I ([2]; infarcted rats (MI)): 30.7 ± 1.9 fmol/g
- Ang II ([2]; infarcted rats (MI)): 34.6 ± 4.2*^¶ fmol/g
- Ang II/Ang I ([2]; infarcted rats (MI)): 4.5 ± 0.6*^#¶
- Ang-(1 -7) ([2]; infarcted rats (MI)): 14.4 ± 2.7*^#¶ fmol/g
- Ang-(1-7)/Ang II ([2]; infarcted rats (MI)): 1.02 ± 0.06*^#¶
- Ang-(1 -9) ([2]; infarcted rats (MI)): 43.8 ± 2.9 *^#¶ fmol/g
- Ang-(1-9)/Ang I ([2]; infarcted rats (MI)): 2.8 ± 1.1*^#¶
- Ang I ([2]; sham rats): 22.6 ± 5.3 fmol/g
- Ang II ([2]; sham rats): 38.6 ± 7.2 fmol/g
- Ang II/Ang I ([2]; sham rats): 3.3 ± 0.9
- Ang-(1 -7) ([2]; sham rats): 10.9 ± 1.6*^#¶ fmol/g
- Ang-(1-7)/Ang II ([2]; sham rats): 0.49 ± 0.15
- Ang-(1 -9) ([2]; sham rats): 36.2 ± 4.1 fmol/g
- Ang-(1-9)/Ang I ([2]; sham rats): 2.6 ± 0.7
- Infarct size LV ([3]; infarcted rats (MI)): 30 ± 1%
- LVAWT ([3]; infarcted rats (MI)): 0.9 ± 0.4 mm
- LVEDD ([3]; infarcted rats (MI)): 8.0 ± 0.3 mm
- LVESD ([3]; infarcted rats (MI)): 5.9 ± 0.4 mm
- LVFS ([3]; infarcted rats (MI)): 22 ± 2 %
- SBP ([3]; infarcted rats (MI)): 88 ± 4*^#¶ mm Hg
- LLVWT ([3]; sham rats): 1.1 ± 0.0 mm
- LVAWT ([3]; sham rats): 1.1 ± 0.4 mm
- LVEDD ([3]; sham rats): 7.7 ± 0.2 mm
- LVESD ([3]; sham rats): 5.1 ± 0.1 mm
- LVFS ([3]; sham rats): 30 ± 2%
- LVP content ([3]; sham rats): 11.6 ± 1.1 mg
- LVW/BW ([3]; sham rats): 2.7 ± 0.1 mg/g
- SBP ([3]; sham rats): 84 ± 4*^#¶ mm Hg
- mRNA ANF ([3]; sham rats): 0.7 ± 0.2 times
- β-MHC ([3]; sham rats): 1.1 ± 0.2 times
